Source: ChEMBL document CHEMBL1201862, “PubChem BioAssay data set” (2004)
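These data come from cells grown in 96-well plates and exposed to compound for 48 hours at five concentrations. The concentration for 50% growth inhibition is given as GI50.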 Active and inactive are the calls of the source. Cut-off read from the data, not from the text of the source: active = GI50 up to about 1.1 µM and inactive = higher.

Experiments:
Assay in all cases: DTP human tumour cell line panel, 48 h
[1] = tested on: T47D
[2] = tested on: 786-0
[3] = tested on: CCRF-CEM
[4] = tested on: CAKI-1
[5] = tested on: EKVX
[6] = tested on: A498
[7] = tested on: BT-549
[8] = tested on: SF-295
[9] = tested on: TK-10
[10] = tested on: MDA-MB-231
[11] = tested on: LOX IMVI
[12] = tested on: HT-29
[13] = tested on: MOLT-4
[14] = tested on: COLO 205
[15] = tested on: SNB-75
[16] = tested on: MCF7
[17] = tested on: SK-MEL-28
[18] = tested on: HOP-92
[19] = tested on: OVCAR-4
[20] = tested on: ACHN

| Structure (SMILES) | GI50 [1] | GI50 [2] | GI50 [3] | GI50 [4] | GI50 [5] | GI50 [6] | GI50 [7] | GI50 [8] | GI50 [9] | GI50 [10] | GI50 [11] | GI50 [12] | GI50 [13] | GI50 [14] | GI50 [15] | GI50 [16] | GI50 [17] | GI50 [18] | GI50 [19] | GI50 [20] |
| --- | --- | --- | --- | --- | --- | --- | --- | --- | --- | --- | --- | --- | --- | --- | --- | --- | --- | --- | --- | --- |
| COc1cccc(Cc2cc(=O)c3ccc(C)nc3[nH]2)c1 | > 100 µM (inactive) | > 100 µM (inactive) | > 100 µM (inactive) | > 100 µM (inactive) | > 100 µM (inactive) | 73.5 µM (inactive) | 94.8 µM (inactive) | > 100 µM (inactive) | > 100 µM (inactive) | > 100 µM (inactive) | > 100 µM (inactive) | > 100 µM (inactive) | 41.3 µM (inactive) | > 100 µM (inactive) | 93.8 µM (inactive) | > 100 µM (inactive) | > 100 µM (inactive) | > 100 µM (inactive) |  |  |
| Cc1nnc2sc(-c3ccc(-c4ccccc4Cl)o3)nn12 | 20.9 µM (inactive) | 26.9 µM (inactive) | 43.6 µM (inactive) | 56 µM (inactive) | 33 µM (inactive) | 37.2 µM (inactive) | 24 µM (inactive) | 32.1 µM (inactive) | 45.1 µM (inactive) | 53.2 µM (inactive) | 20.9 µM (inactive) | 34.4 µM (inactive) | 19 µM (inactive) | 38.5 µM (inactive) |  | 29.1 µM (inactive) |  | 40.2 µM (inactive) | 31.8 µM (inactive) | 48.4 µM (inactive) |
| O=C(O)c1c(-c2ccccc2)c(=O)[nH]c2ccccc12 | > 100 µM (inactive) | > 100 µM (inactive) | > 100 µM (inactive) |  | > 100 µM (inactive) | > 100 µM (inactive) | > 100 µM (inactive) | > 100 µM (inactive) | > 100 µM (inactive) | > 100 µM (inactive) | > 100 µM (inactive) | > 100 µM (inactive) | > 100 µM (inactive) | > 100 µM (inactive) | > 100 µM (inactive) | > 100 µM (inactive) | > 100 µM (inactive) |  | > 100 µM (inactive) | > 100 µM (inactive) |
| C=C1C(=O)OC2CCN3CC=C(COC(=O)C(C)(O)C4(CO4)C1C)C23 (stereo not drawn) | > 100 µM (inactive) | > 100 µM (inactive) | > 100 µM (inactive) | > 100 µM (inactive) | > 100 µM (inactive) | > 100 µM (inactive) | > 100 µM (inactive) | > 100 µM (inactive) | > 100 µM (inactive) | > 100 µM (inactive) | > 100 µM (inactive) | > 100 µM (inactive) | > 100 µM (inactive) | > 100 µM (inactive) |  | > 100 µM (inactive) | > 100 µM (inactive) | > 100 µM (inactive) | > 100 µM (inactive) | > 100 µM (inactive) |
| O=C1C=C(N2CCN(CCOCCO)CC2)C(=O)c2c(O)ccc(O)c21 | 5.65 µM (inactive) | 8.55 µM (inactive) | 3.17 µM (inactive) | 15.7 µM (inactive) | 19.6 µM (inactive) | 14.4 µM (inactive) | 11.9 µM (inactive) | 14 µM (inactive) | 9.64 µM (inactive) | 7.35 µM (inactive) | 1.92 µM (inactive) | 4.48 µM (inactive) |  | 1.38 µM (inactive) | 16.6 µM (inactive) | 1.42 µM (inactive) | 17.1 µM (inactive) | 7.89 µM (inactive) | 3.76 µM (inactive) | 7.4 µM (inactive) |
| CC(NC(=O)/C(=C/c1ccccc1)NC(=O)c1ccccc1)C(=O)O (stereo not drawn) | 29.6 µM (inactive) | 39.5 µM (inactive) | > 100 µM (inactive) | 29.7 µM (inactive) | 40.4 µM (inactive) | > 100 µM (inactive) | > 100 µM (inactive) | 96.4 µM (inactive) |  | 36.5 µM (inactive) | 25.2 µM (inactive) | > 100 µM (inactive) | > 100 µM (inactive) | > 100 µM (inactive) | 24.1 µM (inactive) | 54.2 µM (inactive) | > 100 µM (inactive) | 33.1 µM (inactive) |  | 38.6 µM (inactive) |
| CCOC(=O)C#Cc1cccc(C#CC(=O)OCC)c1 | 42.3 µM (inactive) | 4.47 µM (inactive) | 1.22 µM (inactive) | 4.93 µM (inactive) | 1.14 µM (inactive) | 12.5 µM (inactive) | 2.28 µM (inactive) | 1.65 µM (inactive) | 5.47 µM (inactive) | 5.79 µM (inactive) | 2.07 µM (inactive) | 4.81 µM (inactive) |  | 5.32 µM (inactive) | 0.0248 µM (active) | 5.62 µM (inactive) | 5.33 µM (inactive) | 5.87 µM (inactive) | 3.59 µM (inactive) | 6.03 µM (inactive) |
| COC1=Nc2ccccc2S(=O)(=O)C=C1 | 3.66 µM (inactive) | 3.29 µM (inactive) | 0.342 µM (active) | 13.3 µM (inactive) | 7.69 µM (inactive) | 16.8 µM (inactive) | 6.75 µM (inactive) | > 45.4 µM (inactive) | 2.75 µM (inactive) | 13.2 µM (inactive) | 2.84 µM (inactive) | 9.89 µM (inactive) |  | 1.79 µM (inactive) | 2.31 µM (inactive) | 2.61 µM (inactive) | 7.01 µM (inactive) | 4.81 µM (inactive) | 10.1 µM (inactive) | 3.07 µM (inactive) |
| Oc1ccc(Oc2cc3c(cc2Oc2ccc(O)cc2)-c2nc-3nc3[nH]c(nc4nc(nc5[nH]c(n2)c2cc(Oc6ccc(O)cc6)c(Oc6ccc(O)cc6)cc52)-c2cc(Oc5ccc(O)cc5)c(Oc5ccc(O)cc5)cc2-4)c2cc(Oc4ccc(O)cc4)c(Oc4ccc(O)cc4)cc32)cc1 | > 100 µM (inactive) | > 100 µM (inactive) | > 100 µM (inactive) | > 100 µM (inactive) | > 100 µM (inactive) |  | > 100 µM (inactive) | 37.8 µM (inactive) | > 100 µM (inactive) | 23.5 µM (inactive) | 39.9 µM (inactive) | > 100 µM (inactive) | > 100 µM (inactive) | > 100 µM (inactive) | > 100 µM (inactive) | > 100 µM (inactive) | > 100 µM (inactive) | > 100 µM (inactive) | 35.7 µM (inactive) | > 100 µM (inactive) |
| CCOC(=O)C(=O)/C(=C/NC(=S)c1ccncc1)C(=O)OCC | > 100 µM (inactive) | > 100 µM (inactive) | > 100 µM (inactive) | > 100 µM (inactive) | > 100 µM (inactive) | > 100 µM (inactive) | > 100 µM (inactive) | > 100 µM (inactive) |  | > 100 µM (inactive) | > 100 µM (inactive) | > 100 µM (inactive) | > 100 µM (inactive) | > 100 µM (inactive) | > 100 µM (inactive) | > 100 µM (inactive) | > 100 µM (inactive) |  | > 100 µM (inactive) | > 100 µM (inactive) |
| CCOC(=O)C(NC(=O)c1ccccc1)(Nc1ccc(S(=O)(=O)Nc2nc(C)cc(C)n2)cc1)C(F)(F)F (stereo not drawn) | > 100 µM (inactive) | > 100 µM (inactive) | > 100 µM (inactive) | > 100 µM (inactive) | > 100 µM (inactive) |  | > 100 µM (inactive) | > 100 µM (inactive) | > 100 µM (inactive) | 86.5 µM (inactive) | > 100 µM (inactive) | > 100 µM (inactive) | > 100 µM (inactive) | > 100 µM (inactive) | > 100 µM (inactive) | > 100 µM (inactive) | > 100 µM (inactive) | > 100 µM (inactive) | > 100 µM (inactive) | > 100 µM (inactive) |
| CCOC(=O)N(c1ccccc1)c1cc(=O)n2ccccc2n1 | > 100 µM (inactive) | > 100 µM (inactive) | > 100 µM (inactive) | > 100 µM (inactive) | > 100 µM (inactive) | > 100 µM (inactive) | > 100 µM (inactive) | > 100 µM (inactive) | > 100 µM (inactive) | > 100 µM (inactive) | > 100 µM (inactive) | > 100 µM (inactive) | > 100 µM (inactive) | > 100 µM (inactive) | > 100 µM (inactive) | > 100 µM (inactive) | > 100 µM (inactive) |  | > 100 µM (inactive) | > 100 µM (inactive) |
| CN(/N=C/C=N/N(C)C1=NCCN1)C1=NCCN1 | > 100 µM (inactive) | > 100 µM (inactive) | > 100 µM (inactive) | > 100 µM (inactive) | > 100 µM (inactive) |  | > 100 µM (inactive) | > 100 µM (inactive) | > 100 µM (inactive) | > 100 µM (inactive) | > 100 µM (inactive) | > 100 µM (inactive) | > 100 µM (inactive) | > 100 µM (inactive) | > 100 µM (inactive) | > 100 µM (inactive) | > 100 µM (inactive) | > 100 µM (inactive) | > 100 µM (inactive) | > 100 µM (inactive) |
| C=CCCCCCCCCCOC1C=CC(OC(C)=O)C(COC(C)=O)O1 (stereo not drawn) | 77.3 µM (inactive) | 67.8 µM (inactive) | 39.1 µM (inactive) | 80.5 µM (inactive) | 47.6 µM (inactive) | > 100 µM (inactive) | 66.4 µM (inactive) | 72.9 µM (inactive) | 44.3 µM (inactive) | > 100 µM (inactive) | 34.2 µM (inactive) | 21.4 µM (inactive) | 24.5 µM (inactive) | 51.6 µM (inactive) |  | 38.8 µM (inactive) | > 100 µM (inactive) | 58.2 µM (inactive) | 45.8 µM (inactive) | 65.5 µM (inactive) |
| C1CSCCSCCCSC2CCCCC2SC1 (stereo not drawn) | > 100 µM (inactive) | > 100 µM (inactive) | > 100 µM (inactive) |  | > 100 µM (inactive) |  | > 100 µM (inactive) | > 100 µM (inactive) | > 100 µM (inactive) | 60 µM (inactive) | > 100 µM (inactive) | 25.4 µM (inactive) | 26 µM (inactive) | 86.3 µM (inactive) | > 100 µM (inactive) | > 100 µM (inactive) | > 100 µM (inactive) | 34.4 µM (inactive) | > 100 µM (inactive) |  |
